# Results: patent US20220193025A1, “USE OF DIANHYDROHEXITOL TO ELIMINATE THE COSMETIC EFFECTS OF ACNE, DANDRUFF AND BAD ODORS” (ROQUETTE FRERES, priority 2019, published 2022)
# System: Propionobacterium acnes strain
# Experiment: Example 1: microbial population count over 28 days after contamination (microtiter method, TTC)
# Assay type: cell-based
# Conditions: for Number of colony forming strains after: 24 h / Number of colony forming strains after: 7 days / Number of colony forming strains after: 14 days / Number of colony forming strains after: 21 days / Number of colony forming strains after: 28 days: 22° C.
# Protocol: The samples are prepared under sterile conditions and deposited in microplates (2-ml wells) with the concentrations hereunder. Two analysis controls were produced: a positive control corresponding to 0.5% Phenonip®; a negative control consisting of 0.85% physiological saline solution. Samples and controls are contaminated by a Propionobacterium acnes bacterial strain with around 1.43×10^5 to 4.15×10^5 colony forming units per milliliter, denoted cfu/ml. After contamination, the samples are carefully mixed by suction-discharge cycles in order to ensure a uniform distribution of the microorganism. The whole is incubated at 22° C. during 28 days. The microbial population is sampled and counted at 24 hours, 7, 14, 21 and 28 days for the Propionobacterium acnes bacterial strain. The contaminated samples are collected and then deposited in serial dilutions in microtiter plates, in the presence of culture medium, which is a saline solution with 0.85% sodium chloride, and a dehydrogenase activity indicator reagent, which is 2,3,5-triphenyltetrazolium chloride (denoted TTC). The results are presented in the following pages with the variation of the microbial population over the 28 days of study, for the tested microbial strain. The measurements of microbial populations in the samples collected at each time, are carried out according to the following microtiter method, for one sample collection. In the 96 wells with a volume of 250 μL of a microtiter plate, 20 μL of the collected sample are diluted by a factor of 10 by dispersion in 180 μL of Letheen broth (Difco, ref. 268110) containing 1.5% of Tween 80 (Sigma, ref. […]) and TTC (Sigma, ref. […]). The microplate is incubated for 48 hours at 32.5° C., and the growth of the microorganisms is monitored by the color change, from colorless to red/pink. The highest reciprocal dilution indicating a growth makes it possible to determine the log number of each microorganism at each time. The measurements of microbial populations taken at each collection time are expressed as colony forming units/ml.
structure (smiles),measurement,setting,value
"O[C@@H]1CO[C@H]2[C@@H]1OC[C@@H]2O [isosorbide, 1,4-3,6-dianhydrosorbitol]",bactericidal effect (conclusion in words),Example 1,bactericide
same,colony forming strain observed,"after 24 hours, Example 1",no colony forming strain is observed
same,Number of colony forming strains after: 24 h,dose 1%,0 colony forming units/ml
same,Number of colony forming strains after: 7 days,dose 1%,0 colony forming units/ml
same,Number of colony forming strains after: 14 days,dose 1%,0 colony forming units/ml
same,Number of colony forming strains after: 21 days,dose 1%,0 colony forming units/ml
same,Number of colony forming strains after: 28 days,dose 1%,0 colony forming units/ml
same,Number of colony forming strains after: 24 h,dose 5%,0 colony forming units/ml
same,Number of colony forming strains after: 7 days,dose 5%,0 colony forming units/ml
same,Number of colony forming strains after: 14 days,dose 5%,0 colony forming units/ml
same,Number of colony forming strains after: 21 days,dose 5%,0 colony forming units/ml
same,Number of colony forming strains after: 28 days,dose 5%,0 colony forming units/ml
same,Number of colony forming strains after: 24 h,dose 9%,0 colony forming units/ml
same,Number of colony forming strains after: 7 days,dose 9%,0 colony forming units/ml
same,Number of colony forming strains after: 14 days,dose 9%,0 colony forming units/ml
same,Number of colony forming strains after: 21 days,dose 9%,0 colony forming units/ml
same,Number of colony forming strains after: 28 days,dose 9%,0 colony forming units/ml
